The source of these data is patent publication US20100016367A1, “BIS-PYRINIDIUM COMPOUNDS” (priority 2006, published 2010).

≈ marks a conversion by molar mass, not a printed value.

What all share (assay): In-vitro activity against dermatophytes, MIC
Holding throughout (type): cell-based

One assay deals with Trichophyton rubrum. Conditions: 20 isolates.
Assay [1] deals with Trichophyton mentagrophytes. Conditions: 18 isolates.
A further assay deals with Trichophyton tonsurans. The following applies: 16 isolates.
In another assay the test system is Trichophyton soudanense. Conditions: 3 isolates.
In the next assay the test system is Trichophyton violaceum. Conditions: 3 isolates.
The next assay has as its system Epidermophyton floccosum. The following applies: 5 isolates.
For the next assay, the system named is Microsporum canis. The following applies: 5 isolates.
A further assay has as its system Microsporum gypseum. The following applies: 5 isolates.
The test system of another assay is Microsporum cookie. Conditions: 2 isolates.

On to `CCC(C)n1ncn(-c2ccc(N3CCN(c4ccc(OCC5COC(Cn6cncn6)(c6ccc(Cl)cc6Cl)O5)cc4)CC3)cc2)c1=O` (stereo not drawn) [ITC, Itraconazole], for which the “MIC Range, Trichophyton rubrum” value with Trichophyton rubrum lay within 0.25 to 4 µg/mL. For the same compound, the MIC50 (in general, the lowest concentration that inhibits either 50% of growth or 50% of the strains tested, depending on the study) in the assay with Trichophyton rubrum (Trichophyton rubrum, MIC at which 50% of the isolates were inhibited) amounted to 2 µg/mL (≈ 2.83 µM); in assay [1] (Trichophyton mentagrophytes), 2 µg/mL (≈ 2.83 µM); in the assay on Trichophyton tonsurans (Trichophyton tonsurans) it was 2 µg/mL (≈ 2.83 µM). The MIC90 (commonly the lowest concentration that inhibits either 90% of growth or 90% of the strains tested, depending on the study) against Trichophyton rubrum (Trichophyton rubrum, MIC at which 90% of the isolates were inhibited) stood at 4 µg/mL (≈ 5.67 µM); in assay [1] (Trichophyton mentagrophytes), 4 µg/mL (≈ 5.67 µM); in the assay on Trichophyton tonsurans (Trichophyton tonsurans), 4 µg/mL (≈ 5.67 µM). For the same compound, the minimal inhibitory concentration (MIC) (in general, the smallest concentration in the dilution series that meets the test's criterion for growth inhibition) amounted to 1.96 µg/mL (≈ 2.77 µM) in the assay on Trichophyton rubrum (Trichophyton rubrum, read-out: MIC GM (geometric mean of the MICs), Trichophyton rubrum); 1.68 µg/mL (≈ 2.38 µM) in [1] (Trichophyton mentagrophytes, read-out: MIC GM, Trichophyton mentagrophytes); 1.65 µg/mL (≈ 2.33 µM) in the assay on Trichophyton tonsurans (Trichophyton tonsurans, read-out: MIC GM, Trichophyton tonsurans); 3.42 µg/mL (≈ 4.85 µM) in the assay with Trichophyton soudanense (Trichophyton soudanense, read-out: MIC GM, Trichophyton soudanense); 3.3 µg/mL (≈ 4.68 µM) in the assay with Trichophyton violaceum (Trichophyton violaceum, read-out: MIC GM, Trichophyton violaceum); 0.226 µg/mL (≈ 0.32 µM) in the assay with Epidermophyton floccosum (Epidermophyton floccosum, read-out: MIC GM, Epidermophyton floccosum). The minimum inhibitory concentration (MIC) with Microsporum canis (Microsporum canis, read-out: MIC GM, Microsporum canis) came to 1.23 µg/mL (≈ 1.74 µM); in the assay on Microsporum gypseum (Nannizzia gypsea, read-out: MIC GM, Microsporum gypseum) it was 3.68 µg/mL (≈ 5.22 µM); in the assay on Microsporum cookie (Microsporum, read-out: MIC GM, Microsporum cookie), 6 µg/mL (≈ 8.5 µM). Besides, the “MIC Range, Trichophyton mentagrophytes” value in [1] lay within 0.125 to 4 µg/mL. Further, the “MIC Range, Trichophyton tonsurans” value in the assay on Trichophyton tonsurans is 0.25 to 4 µg/mL. The “MIC Range, Trichophyton soudanense” value against Trichophyton soudanense was in the range of 1 to 4 µg/mL. For the same compound, the “MIC Range, Trichophyton violaceum” value against Trichophyton violaceum is 2 to 8 µg/mL. Moreover, the “MIC Range, Epidermophyton floccosum” value against Epidermophyton floccosum lay in the range of 0.063 to 0.5 µg/mL. Moreover, the “MIC Range, Microsporum canis” value against Microsporum canis fell in the range of 0.25 to 8 µg/mL. Moreover, the “MIC Range, Microsporum gypseum” value against Microsporum gypseum fell in the range of 1 to 8 µg/mL. The “MIC Range, Microsporum cookie” value against Microsporum cookie lay in the range of 4 to 8 µg/mL.
